Experimental findings from ChEMBL document CHEMBL1128920, “Tetrahydrothienopyridine derivatives as novel GPIIb/IIIa antagonists” (Bioorg Med Chem Lett, 1996) are described below.

“And” between values parts separate entries of the source, which are not always exact repeats. Equal values may be shown once. A value given as a limit tells only on which side of the number the result lay.

The species entered for one experiment is Homo sapiens. The experiment is described as follows: Inhibitory activity against ADP-mediated human platelet aggregation in human platelet rich plasma. Type of experiment: functional.
Experiment [1] concerns the target T1, Integrin alpha-IIb/beta-3 (Homo sapiens, UniProt P05106+P08514). The experiment is described as follows: Inhibition of biotinylated fibrinogen binding to alphaIIb-beta3 integrin. Type of experiment: protein-complex assay.
Experiment [2] concerns the target T1, Integrin alpha-IIb/beta-3. In words: Biotinylated fibrinogen binding to alpha IIb beta-3 integrin. The class given is protein-complex assay.
Experiment [3] can be described thus: Inhibition of fibronectin binding to GPIIb/IIIIa fibronectin receptor.
The target of experiment [4] is T1, Integrin alpha-IIb/beta-3. In words: Inhibition of Vitronectin binding to GPIIb/IIIIa Vitronectin receptor. The class given is protein-complex assay.
Experiment [5] deals with T1, Integrin alpha-IIb/beta-3. In words: Inhibition of vWF binding to GPIIb/IIIIa receptor. Type of experiment: protein-complex assay.
Experiment [6] concerns the target T1, Integrin alpha-IIb/beta-3. The experiment is described as follows: Inhibition of vWF binding to alphaIIb-beta3 integrin. The class given is protein-complex assay.

T1 sequence (P05106 27-788 limits assumed): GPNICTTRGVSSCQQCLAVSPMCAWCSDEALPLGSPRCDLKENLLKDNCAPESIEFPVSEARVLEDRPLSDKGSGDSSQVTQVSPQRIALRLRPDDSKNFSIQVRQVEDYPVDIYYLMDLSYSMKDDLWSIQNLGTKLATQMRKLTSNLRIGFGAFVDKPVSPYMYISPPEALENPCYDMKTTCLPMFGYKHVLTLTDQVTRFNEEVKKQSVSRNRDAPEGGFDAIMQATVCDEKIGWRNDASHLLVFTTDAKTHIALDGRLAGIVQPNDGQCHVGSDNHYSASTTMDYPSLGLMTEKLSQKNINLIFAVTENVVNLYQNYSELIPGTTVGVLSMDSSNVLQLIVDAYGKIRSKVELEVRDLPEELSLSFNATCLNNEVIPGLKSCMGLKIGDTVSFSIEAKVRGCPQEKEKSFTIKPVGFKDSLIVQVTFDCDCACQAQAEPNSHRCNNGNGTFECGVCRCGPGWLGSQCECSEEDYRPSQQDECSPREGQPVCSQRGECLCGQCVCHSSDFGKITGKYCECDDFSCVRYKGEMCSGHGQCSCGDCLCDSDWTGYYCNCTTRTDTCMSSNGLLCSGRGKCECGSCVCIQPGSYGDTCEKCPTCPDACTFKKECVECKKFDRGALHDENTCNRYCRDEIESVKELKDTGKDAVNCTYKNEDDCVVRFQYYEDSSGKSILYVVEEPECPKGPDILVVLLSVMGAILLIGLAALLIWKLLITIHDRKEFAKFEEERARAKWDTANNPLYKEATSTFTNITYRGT
T1 sequence (P08514 32-887 limits assumed): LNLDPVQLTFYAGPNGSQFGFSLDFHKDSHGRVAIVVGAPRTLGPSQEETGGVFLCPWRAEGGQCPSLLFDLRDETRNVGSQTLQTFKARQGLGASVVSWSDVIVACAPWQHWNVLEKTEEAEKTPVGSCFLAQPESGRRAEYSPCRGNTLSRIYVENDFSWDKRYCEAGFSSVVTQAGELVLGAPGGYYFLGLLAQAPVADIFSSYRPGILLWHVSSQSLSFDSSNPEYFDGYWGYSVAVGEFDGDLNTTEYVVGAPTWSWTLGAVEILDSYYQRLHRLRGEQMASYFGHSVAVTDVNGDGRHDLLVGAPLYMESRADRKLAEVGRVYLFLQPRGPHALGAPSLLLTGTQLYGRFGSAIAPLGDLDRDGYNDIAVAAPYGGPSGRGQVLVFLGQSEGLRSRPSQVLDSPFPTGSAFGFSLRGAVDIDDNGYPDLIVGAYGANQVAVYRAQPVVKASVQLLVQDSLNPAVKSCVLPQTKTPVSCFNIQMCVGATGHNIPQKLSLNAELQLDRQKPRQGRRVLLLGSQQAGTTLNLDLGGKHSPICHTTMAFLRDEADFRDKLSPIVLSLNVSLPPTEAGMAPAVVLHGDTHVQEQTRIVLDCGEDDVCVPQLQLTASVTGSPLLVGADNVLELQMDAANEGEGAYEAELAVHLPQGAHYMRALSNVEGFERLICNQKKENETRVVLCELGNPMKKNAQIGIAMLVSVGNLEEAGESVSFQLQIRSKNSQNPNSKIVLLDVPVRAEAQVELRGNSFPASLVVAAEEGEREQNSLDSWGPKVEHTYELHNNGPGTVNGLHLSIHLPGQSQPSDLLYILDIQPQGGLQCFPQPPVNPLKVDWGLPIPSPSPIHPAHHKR
T1 sequence (P08514 891-1039 limits assumed): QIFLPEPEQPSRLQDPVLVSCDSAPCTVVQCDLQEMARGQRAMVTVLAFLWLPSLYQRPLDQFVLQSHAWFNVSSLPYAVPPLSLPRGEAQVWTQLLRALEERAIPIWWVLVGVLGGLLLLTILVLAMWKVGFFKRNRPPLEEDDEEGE

With `O=C(O)COc1ccc(C(=O)CNC(=O)CCCC2CCNCC2)cc1OCC(=O)O`, the values for the IC50 (in the experiment listed under Homo sapiens; in experiment [1]) were 9000 nM and greater than 100 nM, respectively.
In the case of `O=C(O)COc1cnc(C(=O)CNC(=O)c2cc3c(s2)CCNC3)cc1OCC(=O)O`, the values for the concentration for half-maximal inhibition (IC50) (in experiment [2]; in the experiment filed under Homo sapiens) were 9.8 nM and 470 nM, respectively.
Consider `O=C(O)COc1ccc(C(=O)CNC(=O)c2sc3c(c2Cc2ccccc2)CNCC3)cc1OCC(=O)O`, for which the half-maximal inhibitory concentration (IC50) in experiment [2] is 62 nM; in the experiment filed under Homo sapiens it was greater than 10000 nM.
As for `NC(N)=NCCC[C@H](N)C(=O)NCC(=O)N[C@@H](CC(=O)O)C(=O)O`, the concentration for half-maximal inhibition (IC50) in the experiment filed under Homo sapiens turned out to be 87000 nM; in experiment [3], 510 nM; in experiment [1], 76 nM; in experiment [4], 1400 nM; in experiment [5] it was 4000 nM.
Regarding `O=C(O)COc1ccc(C(=O)CNC(=O)c2cc3c(s2)CNC3)cc1OCC(=O)O`, the figures for the IC50 (in the experiment filed under Homo sapiens; in experiment [1]) were 1600 nM and greater than 100 nM, respectively.
For the molecule `O=C(O)COc1ccc(C(=O)CNC(=O)c2cc3c(s2)CCNCC3)cc1OCC(=O)O`, the results for the IC50 (in experiment [2]; in the experiment filed under Homo sapiens) were 6 nM and 150 nM, respectively.
`O=C(O)COc1ccc(C(=O)CNC(=O)c2cc3c(s2)CCNC3)cc1OCC(=O)O`: the IC50 was 4.7 nM and 5.6 nM in experiment [2]; 160 nM in the experiment listed under Homo sapiens; greater than 100000 nM in experiment [3]; greater than 100000 nM in experiment [4]; 28 nM in experiment [6].
With `O=C(O)COc1ccc(C(=O)CNC(=O)c2cc3c(s2)CCCNC3)cc1OCC(=O)O`, the IC50 in experiment [2] was found to be 8.7 nM; in the experiment filed under Homo sapiens, 1900 nM.
For `O=C(O)COc1ccc(C(=O)CNC(=O)c2cc3c(s2)CCNC3)cc1` the same measures were 31 nM and 1200 nM.
`O=C(O)COc1cc(OCC(=O)O)cc(C(=O)CNC(=O)c2cc3c(s2)CCNC3)c1`: the concentration for half-maximal inhibition (IC50) in experiment [2] was greater than 1000 nM; in the experiment filed under Homo sapiens it was greater than 10000 nM.
For `O=C(O)COc1ccc(C(=O)CNC(=O)c2cc3c(s2)CCNC3)c(OCC(=O)O)c1` the same measures were greater than 100 nM and 1500 nM.
As to `O=C(O)COc1ccc(C(=O)CNC(=O)c2cc3c(s2)CCNC3)nc1`, the IC50 was 100 nM in experiment [2] and 720 nM in the experiment listed under Homo sapiens.
The like results for `O=C(O)COc1ccc(C(=O)CNC(=O)c2cc3c(s2)CNCC3)cc1OCC(=O)O` were, in that order, 1.4 nM and 230 nM.
Turning to `Cc1c(C(=O)NCC(=O)c2ccc(OCC(=O)O)c(OCC(=O)O)c2)sc2c1CNCC2`, the half-maximal inhibitory concentration (IC50) in experiment [2] amounted to 18 nM; in the experiment listed under Homo sapiens it was 2500 nM.
The like results for `O=C(O)COc1ccc(C(=O)CNC(=O)C2CCNCC2)cc1OCC(=O)O` were, in that order, greater than 1000 nM and 9800 nM.
In the case of `O=C(O)COc1ccc(C(=O)CNC(=O)CCC2CCNCC2)cc1OCC(=O)O`, the IC50 is 42 nM in experiment [2] and 350 nM in the experiment listed under Homo sapiens.
For `NCC1CCC(C(=O)NCC(=O)c2ccc(OCC(=O)O)c(OCC(=O)O)c2)CC1` (centres undefined), the figures for the IC50 (in the experiment filed under Homo sapiens; in experiment [1]) were 4300 nM and 730 nM, respectively.
As to `O=C(O)COc1ccc(C(=O)CNC(=O)CC2CCNCC2)cc1OCC(=O)O`, the IC50 is greater than 100 nM in experiment [2] and 10000 nM in the experiment filed under Homo sapiens.
Take `O=C(O)CCc1ccc(C(=O)CNC(=O)c2cc3c(s2)CCNC3)cc1`: the IC50 in experiment [2] is 80 nM; in the experiment listed under Homo sapiens it was greater than 10000 nM.

Broadly, the IC50 is the point on the concentration scale where inhibition reaches its midpoint.
